Source: ChEMBL document CHEMBL1153164, “Synthesis and evaluation of 3'-azido-2',3'-dideoxypurine nucleosides as inhibitors of human immunodeficiency virus” (Bioorg Med Chem Lett, 2010)

Legend:
PBMC = experiment: Cytotoxicity against human PBMC after 5 days; format: cell-based; conditions: 120 h
CCRF-CEM = experiment: Cytotoxicity against human CEM cells after 5 days; format: ADME, cell-based; conditions: 120 h
[1] = tested on: Human immunodeficiency virus 1; experiment: Antiviral activity against HIV1 LAI infected in human PBM cells after 5 days; format: functional, organism-based; conditions: Human immunodeficiency virus 1, LAI, PBMC, 120 h
Vero = experiment: Cytotoxicity against african green monkey Vero cells after 5 days; format: ADME, cell-based; conditions: Chlorocebus sabaeus, 120 h

Structure (SMILES)	IC50 (PBMC) [µM]	IC50 (CCRF-CEM) [µM]	EC50 [1] [µM]	EC90 [1] [µM]	IC50 (Vero) [µM]
[N-]=[N+]=N[C@H]1C[C@H](n2cnc3c(NCCCCCO)nc(N)nc32)O[C@@H]1CO	> 100	> 100	86.5	> 10	> 100
Cc1cn([C@H]2C[C@H](N=[N+]=[N-])[C@@H](CO)O2)c(=O)[nH]c1=O [ZIDOVUDINE]	> 100			0.02	
CN(C)c1nc(Cl)nc2c1ncn2[C@H]1C[C@H](N=[N+]=[N-])[C@@H](CO)O1	> 100	> 100	> 100	> 100	> 100
[N-]=[N+]=N[C@H]1C[C@H](n2cnc3c(N)nc(F)nc32)O[C@@H]1CO	30.1	30.1	45.8	94.7	34.4
CC(C)(CO)Nc1nc(N)nc2c1ncn2[C@H]1C[C@H](N=[N+]=[N-])[C@@H](CO)O1	> 100	> 100	52.5	> 10	> 100
COc1nc(N)c2ncn([C@H]3C[C@H](N=[N+]=[N-])[C@@H](CO)O3)c2n1	35	> 100	12.4	39.6	> 100
COc1nc(Cl)nc2c1ncn2[C@H]1C[C@H](N=[N+]=[N-])[C@@H](CO)O1	> 100	> 100	55.3	> 100	> 100
[N-]=[N+]=N[C@H]1C[C@H](n2cnc3c(NC4CC4)nc(Cl)nc32)O[C@@H]1CO	35.3	> 100	15	51.5	> 100
[N-]=[N+]=N[C@H]1C[C@H](n2cnc3c(Cl)nc(F)nc32)O[C@@H]1CO	7.2	13.3	2.6	10	21.8
C#CCNc1nc(N)nc2c1ncn2[C@H]1C[C@H](N=[N+]=[N-])[C@@H](CO)O1	> 100	> 100	1.7	8.5	> 100
C=CCNc1ncnc2c1ncn2[C@H]1C[C@H](N=[N+]=[N-])[C@@H](CO)O1	51.1	> 100	0.3	1.5	> 100
COc1nc(NC2CC2)c2ncn([C@H]3C[C@H](N=[N+]=[N-])[C@@H](CO)O3)c2n1	> 100	> 100	59.7	> 100	> 100
CNc1nc(Cl)nc2c1ncn2[C@H]1C[C@H](N=[N+]=[N-])[C@@H](CO)O1	> 100	> 100	> 100	> 100	> 100
[N-]=[N+]=N[C@H]1C[C@H](n2cnc3c(NCCO)nc(N)nc32)O[C@@H]1CO	> 100	> 100	2.1	16.2	> 100
[N-]=[N+]=N[C@H]1C[C@H](n2cnc3c(NC4CC4)nc(N)nc32)O[C@@H]1CO	> 100	> 100	1.5	8.8	> 100
[N-]=[N+]=N[C@H]1C[C@H](n2ccc(=O)[nH]c2=O)O[C@@H]1CO [NAVURIDINE]	> 100	69.3	0.16	0.6	26
CC(CO)Nc1nc(N)nc2c1ncn2[C@H]1C[C@H](N=[N+]=[N-])[C@@H](CO)O1 (some centres not stated)	> 100	> 100	59.9	> 10	> 100
COc1nc(OC)c2ncn([C@H]3C[C@H](N=[N+]=[N-])[C@@H](CO)O3)c2n1	> 100	> 100	13.2	> 100	> 100
COc1nc(F)nc2c1ncn2[C@H]1C[C@H](N=[N+]=[N-])[C@@H](CO)O1	9.4	> 100	> 100	> 100	> 100
CN(C)c1nc(N)nc2c1ncn2[C@H]1C[C@H](N=[N+]=[N-])[C@@H](CO)O1	> 100	> 100	0.21	1.1	> 100
[N-]=[N+]=N[C@H]1C[C@H](n2cnc3c(N)nc(Cl)nc32)O[C@@H]1CO	35.8	> 100	50.3	> 100	> 100
C=CCN(C)c1nc(N)nc2c1ncn2[C@H]1C[C@H](N=[N+]=[N-])[C@@H](CO)O1	> 100	27	0.4	1.5	32
C=CCNc1nc(N)nc2c1ncn2[C@H]1C[C@H](N=[N+]=[N-])[C@@H](CO)O1	> 100	> 100	0.5	4.3	> 100
